Source: ChEMBL document CHEMBL3991943, “Pharmaceutical formulations comprising salts of a protein kinase inhibitor and methods of using same” (2013)

Legend:
Mus musculus [1] = assay: Toxicity in athymic nude mouse xenografted with human TT cells at 7.5 to 15 mg/kg, ip qd administered for 2 weeks; format: organism-based; conditions: in vivo, 336 h
Canis familiaris [2] = assay: Acute toxicity in Beagle dog assessed as recumbency at 0.625 to 20 mg/kg, iv dosed with 48 to 96 hrs between dose escalations with exception of 11 days between dose 5 and 6 measured during dose 6 administration; format: organism-based, Canis lupus familiaris; conditions: in vivo
Canis familiaris [3] = assay: Acute toxicity in Beagle dog assessed as urination at 0.625 to 20 mg/kg, iv dosed with 48 to 96 hrs between dose escalations with exception of 11 days between dose 5 and 6 measured during dose 6 administration; format: organism-based, Canis lupus familiaris; conditions: in vivo
Canis familiaris [4] = assay: Acute toxicity in Beagle dog at 20 mg/kg, iv; format: organism-based, Canis lupus familiaris; conditions: in vivo
Rattus norvegicus [5] = assay: Acute toxicity in rat assessed as lethargy at 10 mg/kg, iv administered for 30 mins measured after 1 hr post dose; format: organism-based; conditions: in vivo
Rattus norvegicus [6] = assay: Acute toxicity in rat assessed as normal appearance at 0.625 to 10 mg/kg, iv administered as single dose for 30 mins measured on day 4; format: organism-based; conditions: in vivo, 0.5 h
Rattus norvegicus [7] = assay: Acute toxicity in rat assessed as labored breathing at 10 mg/kg, iv administered for 30 mins measured immediately and 10 mins post dose; format: organism-based; conditions: in vivo
Canis familiaris [8] = assay: Acute toxicity in Beagle dog assessed as weight gain at 0.625 to 20 mg/kg, iv dosed with 48 to 96 hrs between dose escalations with exception of 11 days between dose 5 and 6 measured during course of 21 study days; format: organism-based, Canis lupus familiaris; conditions: in vivo
Rattus norvegicus [9] = assay: Acute toxicity in rat assessed as dark red mottled lungs at 10 mg/kg, iv administered for 30 mins measured post dose; format: organism-based; conditions: in vivo, 0.5 h
Canis familiaris [10] = assay: Acute toxicity in Beagle dog assessed as animal appearance at 0.625 to 20 mg/kg, iv administered with 48 to 96 hrs between dose escalations with exception of 11 days between dose 5 and 6 measured after doses 1 through 5 and prior to dose 6; format: organism-based, Canis lupus familiaris; conditions: in vivo
Rattus norvegicus [11] = assay: Acute toxicity in rat assessed as induction of red urine excretion at 10 mg/kg, iv administered for 30 mins measured immediately, 10 mins and 1 hr post dose; format: organism-based; conditions: in vivo
Rattus norvegicus [12] = assay: Acute toxicity in rat assessed as normal appearance at 10 mg/kg, iv administered for 30 mins measured on day 4; format: organism-based; conditions: in vivo, 0.5 h
Mus musculus [13] = assay: Toxicity in athymic nude mouse xenografted with human HT-29 cells assessed as overt toxicity at 10 to 20 mg/kg, ip qd administered 5 days for 2 weeks; format: organism-based; conditions: in vivo
Canis familiaris [14] = assay: Acute toxicity in Beagle dog assessed as thrombus formation in veins at 10 mg/kg, iv administered for 48 hrs followed by 20 mg/kg, iv administered for 3 days measured post dose; format: organism-based, Canis lupus familiaris; conditions: in vivo
Rattus norvegicus [15] = assay: Acute toxicity in rat assessed as bright red lungs at 10 mg/kg, iv administered as single dose for 30 mins measured on day 4; format: organism-based; conditions: in vivo, 0.5 h
Canis familiaris [16] = assay: Acute toxicity in male Beagle dog assessed as adverse clinical signs at 10 mg/kg, iv; format: organism-based, Canis lupus familiaris; conditions: in vivo
Canis familiaris [17] = assay: Acute toxicity in Beagle dog assessed as facial swelling at 0.625 to 20 mg/kg, iv dosed with 48 to 96 hrs between dose escalations with exception of 11 days between dose 5 and 6 measured during dose 6 administration; format: organism-based, Canis lupus familiaris; conditions: in vivo
Mus musculus [18] = assay: Toxicity in athymic nude mouse xenografted with human A549 cells assessed as loss of body weight at 50 to 150 mg/kg, po qd administered 5 days for 3 weeks; format: organism-based; conditions: in vivo
Rattus norvegicus [19] = assay: Acute toxicity in rat assessed as induction of red urine excretion at 10 mg/kg, iv administered for 30 mins measured after 1 hr post dose; format: organism-based; conditions: in vivo
Rattus norvegicus [20] = assay: Acute toxicity in rat assessed as recumbency at 10 mg/kg, iv administered for 30 mins measured after 1 hr post dose; format: organism-based; conditions: in vivo
Rattus norvegicus [21] = assay: Acute toxicity in rat assessed as red tinged urine at 10 mg/kg, iv administered for 30 mins measured post dose; format: organism-based; conditions: in vivo, 0.5 h
Canis familiaris [22] = assay: Acute toxicity in Beagle dog assessed as depression at 0.625 to 20 mg/kg, iv dosed with 48 to 96 hrs between dose escalations with exception of 11 days between dose 5 and 6 measured during dose 6 administration; format: organism-based, Canis lupus familiaris; conditions: in vivo
Rattus norvegicus [23] = assay: Acute toxicity in rat assessed as mortality at 10 mg/kg, iv administered for 30 mins measured post dose; format: organism-based; conditions: in vivo, 0.5 h
Canis familiaris [24] = assay: Acute toxicity in female Beagle dog assessed as intestinal mucosal congestion at 0.625 to 20 mg/kg, iv administered with 48 to 96 hrs between dose escalations with exception of 11 days between dose 5 and 6 measured after 21 days; format: organism-based, Canis lupus familiaris; conditions: in vivo, 504 h
Rattus norvegicus [25] = assay: Acute toxicity in rat assessed as loss of body weight at 0.625 to 10 mg/kg, iv administered as single dose for 30 mins measured on day 2; format: organism-based; conditions: in vivo, 0.5 h
Canis familiaris [26] = assay: Acute toxicity in female Beagle dog assessed as mortality at 0.625 to 20 mg/kg, iv measured after 5 mins of completion of dose 6 administration; format: organism-based, Canis lupus familiaris; conditions: in vivo
A549 = assay: Antitumor activity against human A549 cells xenografted in athymic nude mouse assessed as tumor growth at 10 mg/kg, po qd administered 5 days for 3 weeks measured on day 26 (reference value: 43 mm3/day); format: functional
Rattus norvegicus [27] = assay: Acute toxicity in rat assessed as recumbency at 10 mg/kg, iv administered for 30 mins measured immediately and 10 mins post dose; format: organism-based; conditions: in vivo
Rattus norvegicus [28] = assay: Acute toxicity in rat assessed as wobbly appearance at 0.625 to 10 mg/kg, iv administered as single dose for 30 mins measured immediately, 10 mins and 1 hr post dose; format: organism-based; conditions: in vivo
Rattus norvegicus [29] = assay: Acute toxicity in rat assessed as lethargy at 10 mg/kg, iv administered for 30 mins measured at 1 hr post dose; format: organism-based; conditions: in vivo
Canis familiaris [30] = assay: Acute toxicity in Beagle dog assessed as adverse events at 10 mg/kg, iv administered for 48 hrs followed by 20 mg/kg, iv administered for 3 days measured everyday after second dose; format: organism-based, Canis lupus familiaris; conditions: in vivo
Rattus norvegicus [31] = assay: Acute toxicity in rat assessed as red urine at 0.625 to 10 mg/kg, iv administered as single dose for 30 mins measured immediately, 10 mins and 1 hr post dose; format: organism-based; conditions: in vivo
Canis familiaris [32] = assay: Acute toxicity in Beagle dog assessed as defecation at 0.625 to 20 mg/kg, iv dosed with 48 to 96 hrs between dose escalations with exception of 11 days between dose 5 and 6 measured during dose 6 administration; format: organism-based, Canis lupus familiaris; conditions: in vivo
OVCAR-3 = assay: Induction of DNA damage in human OVCAR3 cells assessed as increase in gamma-H2AX levels at 10 uM in presence of topotecan; format: functional
Mus musculus [33] = assay: Toxicity in athymic nude mouse xenografted with human HT-29 cells assessed as loss of body weight at 10 to 20 mg/kg, ip qd administered 5 days for 2 weeks; format: organism-based; conditions: in vivo
Canis familiaris [34] = assay: Acute toxicity in Beagle dog assessed as weight gain at 10 mg/kg, iv administered for 48 hrs followed by 20 mg/kg, iv administered for 3 days measured everyday after second dose; format: organism-based, Canis lupus familiaris; conditions: in vivo
Canis familiaris [35] = assay: Acute toxicity in Beagle dog assessed as anxiety at 0.625 to 20 mg/kg, iv dosed with 48 to 96 hrs between dose escalations with exception of 11 days between dose 5 and 6 measured during dose 6 administration; format: organism-based, Canis lupus familiaris; conditions: in vivo
Canis familiaris [36] = assay: Acute toxicity in female Beagle dog assessed as meningeal vessel congestion at 0.625 to 20 mg/kg, iv administered with 48 to 96 hrs between dose escalations with exception of 11 days between dose 5 and 6 measured after 21 days; format: organism-based, Canis lupus familiaris; conditions: in vivo, 504 h
Canis familiaris [37] = assay: Acute toxicity in male Beagle dog assessed as animal appearance at 0.625 to 20 mg/kg, iv dosed with 48 to 96 hrs between dose escalations with exception of 11 days between dose 5 and 6 measured following day after dose 6 administration; format: organism-based, Canis lupus familiaris; conditions: in vivo
Canis familiaris [38] = assay: Acute toxicity in male Beagle dog assessed as mild venous congestion in meningeal vein between brain hemispheres and in venous sinus on cranial floor at 10 mg/kg, iv administered for 48 hrs followed by 20 mg/kg, iv administered for 3 days measured post dose; format: organism-based, Canis lupus familiaris; conditions: in vivo
Mus musculus [39] = assay: Toxicity in athymic nude mouse xenografted with human A549 cells assessed as loss of body weight at 10 mg/kg, po qd administered 5 days for 3 weeks; format: organism-based; conditions: in vivo

## S=C(NCc1ccc2c(c1)OCO2)N1CCN(c2ncnc3c2oc2ccccc23)CC1 [AMUVATINIB]
Mus musculus [1]
  Activity: Non-Toxic
Canis familiaris [2]
  Activity: Toxic
Canis familiaris [3]
  Activity: Toxic
Canis familiaris [4]
  Activity: Toxic
Rattus norvegicus [5]
  Activity: Non-Toxic
Rattus norvegicus [6]
  Activity: Non-Toxic
Rattus norvegicus [7]
  Activity: Toxic
Canis familiaris [8]
  Activity: Toxic
Rattus norvegicus [9]
  Activity: Toxic
Canis familiaris [10]
  Activity: Non-Toxic
Rattus norvegicus [11]
  Activity: Toxic
Rattus norvegicus [12]
  Activity: Non-Toxic
Mus musculus [13]
  Activity: Toxic
Canis familiaris [14]
  Activity: Toxic
Rattus norvegicus [15]
  Activity: Toxic
Canis familiaris [16]
  Activity: Non-Toxic
Canis familiaris [17]
  Activity: Toxic
Mus musculus [18]
  Activity: Non-Toxic
Rattus norvegicus [19]
  Activity: Non-Toxic
Rattus norvegicus [20]
  Activity: Non-Toxic
Rattus norvegicus [21]
  Activity: Toxic
Canis familiaris [22]
  Activity: Toxic
Rattus norvegicus [23]
  Activity: Toxic
Canis familiaris [24]
  Activity: Toxic
Rattus norvegicus [25]
  Activity: Toxic
Canis familiaris [26]
  Activity: Toxic
A549
  Activity: 19.5 mm3/day
Rattus norvegicus [27]
  Activity: Toxic
Rattus norvegicus [28]
  Activity: Toxic
Rattus norvegicus [29]
  Activity: Toxic
Canis familiaris [30]
  Activity: Toxic
Rattus norvegicus [31]
  Activity: Toxic
Canis familiaris [32]
  Activity: Toxic
OVCAR-3
  Activity: 103%
Mus musculus [33]
  Activity: Non-Toxic
Canis familiaris [34]
  Activity: Toxic
Canis familiaris [35]
  Activity: Toxic
Canis familiaris [36]
  Activity: Toxic
Canis familiaris [37]
  Activity: Non-Toxic
Canis familiaris [38]
  Activity: Toxic

## O=c1[nH]cc(F)c(=O)[nH]1 [FLUOROURACIL]
Mus musculus [39]
  Activity: Non-Toxic
